Measured values from patent publication US4734416A, “Pharmaceutically useful carbostyril derivatives” (Otsuka Pharmaceutical Co., Ltd., priority 1978, dated 1988).
Counter-ions that a name gives are not always drawn.

How the values were obtained:
[1] = molecular target: T1, enucleated ileum of a guinea pig (Cavia porcellus, UniProt P31389); experiment: Antihistamine activity test in vitro (enucleated guinea pig ileum, histamine retraction, pA2 by Van Rossam method); conditions: 10^-6 g/ml test compound, 5 minutes before histamine, 36° C.
T1 construct: the tissue of ileum is cut to a length of 2.5 to 3.0 cm and suspended in an organ bath; from tissue; host or cells: isolated ileum from the ileocecal region of male guinea pig
Procedure: As to the test method for determining antihistamine activity of a compound in vitro, a method of using an enucleated ileum of a guinea pig is generally accepted.
A male guinea pig having 300 to 500 g body weight is killed by blood letting. An ileum having a length of 15 cm being enculeated from the ileocecal region is dipped into Tyrode's solution (which is prepared from […], 0.2 g of KCl, 0.2 g of CaCl2, 1.0 g of glucose, 1.0 g of NaHCO3, 0.065 g of NaHPO4.2H2 O and 0.2135 g of MgCl2.6H2 O to make 1000 ml in total volume by adding water). Then the tissue of ileum is cut to a length of 2.5 to 3.0 cm and suspended in an organ bath filled with 30 ml of Tyrode's solution. The organ bath is kept at a temperature of 36° C. and a mixed gas consisting of 5% of CO2 and 95% of O2 is blown into the bath. 10 Minutes after the blowing, 10^-6 M of histamine is added to the bath to examine the sensitivity of the tissue and a reaction curve (control) with respect to the dosage of histamine is obtained. After the dosage of histamine-reaction curve (control) becomes constant, 10^-6 g/ml of a compound to be tested is added to the bath and further histamine is added 5 minutes later to obtain a dosage-reaction curve. Retraction of the ileum is recorded on a pen-recorder through an isotonic transducer [TD-112S manufactured by Nihon Koden]. Antihistamine activity of the test compound is determined as pA2 value by the "Van Rossam" method [J. M. Van Rossam; Arch. Inst. Pharmacodyn., 143, 299 (1963)] wherein the maximum retraction of ileum caused by histamine shown in the control curve is 100%.

[2] = Halothane anesthesia increasing activity (righting reflex); assay type: in vivo, mouse (male, ddy-strain); conditions: oral; for Time (minutes) between introduction of anesthesia and waking: 8 mg/kg, 1 hour before 4% Halothane
Procedure: Male mice of ddy-strain having about 20 g body weight are used. One test group consists of 10 mice. An aqueous Gummi Arabicum suspension of test compound (80 mg of a compound to be tested and 1 g of Gummi Arabicum/100 ml of physiological NaCl solution) is administered orally to each mouse at the dosage of 8 mg of test compound/kg body. One hour after the administration, each mouse is placed in a gas respiration chamber (13×13×24 cm) and oxygen gas containing 4% of Halothane [2-bromo-2-chloro-1,1,1-trifluoroethane] is blown into the chamber at the velocity of 2 l/min for 3 minutes. A mouse anaesthetized is taken out from the chamber and the time between the introduction of anesthesia to waking is measured by righting reflex as the index. To mice of the control group, 1% Gummi Arabicum aqueous physiological solution is orally administered at the dosage of 0.1 ml/10 g body. [Reference: M. J. Turnbull and J. W. Watkins: Br. J. Pharmac., 58, 27-35 (1976)]
Same procedures as mentioned in (II)-(A) are employed, except that the amount of test compound to be orally administered is changed in 4 steps at the dosage of 0.5 mg/kg, 1 mg/kg, 2 mg/kg and 4 mg/kg respectively to measure the relationship between the dosage and degree of strength of anesthesia increasing activity.

T1 sequence (P31389 whole entry): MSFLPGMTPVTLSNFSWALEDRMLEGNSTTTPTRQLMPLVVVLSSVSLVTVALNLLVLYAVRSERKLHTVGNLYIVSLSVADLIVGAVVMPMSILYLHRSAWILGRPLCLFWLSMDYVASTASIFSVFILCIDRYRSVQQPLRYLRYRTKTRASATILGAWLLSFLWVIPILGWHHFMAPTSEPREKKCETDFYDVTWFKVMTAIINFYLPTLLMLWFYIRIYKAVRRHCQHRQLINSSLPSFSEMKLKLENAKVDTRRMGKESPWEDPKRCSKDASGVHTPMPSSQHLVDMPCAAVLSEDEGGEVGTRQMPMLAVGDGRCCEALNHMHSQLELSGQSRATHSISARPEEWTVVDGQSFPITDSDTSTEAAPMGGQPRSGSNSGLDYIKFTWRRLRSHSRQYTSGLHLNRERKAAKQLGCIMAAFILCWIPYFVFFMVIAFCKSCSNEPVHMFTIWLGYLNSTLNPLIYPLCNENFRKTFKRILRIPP

| SMILES | Kb [1] | Time (minutes) between introduction of anesthesia and waking [2] | Anesthesia increasing activity ([2]; 0.5 mg/kg) | Anesthesia increasing activity ([2]; 1 mg/kg) | Anesthesia increasing activity ([2]; 2 mg/kg) | Anesthesia increasing activity ([2]; 4 mg/kg) |
| --- | --- | --- | --- | --- | --- | --- |
| CC(=O)OCCN1CCN(CCCOc2ccc3c(c2)NC(=O)CC3)CC1 [Compound 32, 7-{3-[4-(2-Acetyloxyethyl)piperazinyl]propoxy}-3,4-dihydrocarbostyril] | 30.2 nM | 7.9 ± 3.1 min | – | – | – | – |
| CC(=O)OC(COc1cccc2c1CCC(=O)N2)CN1CCN(c2ccccc2)CC1 (stereo not drawn) [Compound 20, 5-[2-Acetyloxy-3-(4-phenylpiperazinyl)propoxy]-3,4-dihydrocarbostyril] | 1.23 nM | 9.8 ± 3.7 min | – | – | – | – |
| Cc1cc(=O)[nH]c2cc(OCCCN3CCN(c4ccccc4)CC3)ccc12 [Compound 13, 4-Methyl-7-[3-(4-phenylpiperazinyl)propoxy]carbostyril] | 0.407 nM | 8.1 ± 2.7 min | – | – | – | – |
| O=C1CCc2c(c(Cl)cc(Cl)c2OCC(O)CN2CCN(c3ccccc3)CC2)N1 (stereo not drawn) [Compound 4, 6,8-Dichloro-5-[2-hydroxy-3-(4-phenylpiperazinyl)propoxy]-3,4-dihydrocarbostyril monohydrochloride] | 1.12 nM | 7.4 ± 2.7 min | – | – | – | – |
| O=C1CCc2c(cccc2OCCCN2CCN(C3CCCCC3)CC2)N1 [Compound 30, 5-[3-(4-Cyclohexylpiperazinyl)propoxy]-3,4-dihydrocarbostyril] | 44.7 nM | 7.9 ± 3.7 min | – | – | – | – |
| O=C1CCc2ccc(OCCCN3CCN(CCO)CC3)cc2N1 [Compound 33, 7-{3-[4-(2-Hydroxyethyl)piperazinyl]propoxy}-3,4-dihydrocarbostyril] | 95.5 nM | 7.4 ± 2.6 min | – | – | – | – |
| COc1ccccc1N1CCN(CCCOc2ccc3ccc(=O)[nH]c3c2)CC1 [Compound 22, 7-{3-[4-(2-Methoxyphenyl)piperazinyl]propoxy}-carbostyril dihydrochloride] | 11.7 nM | 10.4 ± 4.1 min | – | – | – | – |
| O=C1CCc2c(OCC(O)CN3CCN(c4ccc(Cl)cc4)CC3)ccc(Cl)c2N1 (stereo not drawn) [Compound 3, 8-Chloro-5-{2-hydroxy-3-[4-(4-chlorophenyl)piperazinyl]propoxy}-3,4-dihydrocarbostyril monohydrochloride] | 4.9 nM | 7.9 ± 3.4 min | – | – | – | – |
| O=c1cc(-c2ccccc2)c2ccc(OCCCN3CCN(c4ccccc4)CC3)cc2[nH]1 [Compound 27, 4-Phenyl-7-[3-(4-phenylpiperazinyl)propoxy]carbostyril] | 0.977 nM | 7.8 ± 3.2 min | – | – | – | – |
| O=C1CCc2ccc(OCCCN3CCN(c4cccc(F)c4)CC3)cc2N1 [Compound 24, 7-{3-[4-(3-Fluorophenyl)piperazinyl]propoxy}-3,4-dihydrocarbostyril] | 0.257 nM | 11.6 ± 6.7 min | – | – | – | – |
| O=C1CCc2cccc(OCCCN3CCN(c4ccccc4)CC3)c2N1 [Compound 19, 8-[3-(4-Phenylpiperazinyl)propoxy]-3,4-dihydrocarbostyril] | 10.2 nM | 9.3 ± 3.5 min | – | – | – | – |
| O=C1CCc2c(cccc2OCC(O)CN2CCN(c3ccccc3)CC2)N1 (stereo not drawn) [Compound 1, 5-[2-Hydroxy-3-(4-phenylpiperazinyl)propoxy]-3,4-dihydrocarbostyril monohydrochloride] | 8.32 nM | 9.3 ± 4.9 min | – | – | – | – |
| O=C1CCc2ccc(OCCCN3CCN(Cc4ccccc4)CC3)cc2N1 [Compound 14, 7-[3-(4-Benzylpiperazinyl)propoxy]-3,4-dihydrocarbostyril] | 0.794 nM | 7.5 ± 4.3 min | – | – | – | – |
| Cc1ccc(N2CCN(CCCOc3ccc4c(c3)NC(=O)CC4)CC2)cc1 [Compound 15, 7-{3-[4-(4-Methylphenyl)piperazinyl]propoxy}-3,4-dihydrocarbostyril] | 0.331 nM | 12.7 ± 3.5 min | – | – | – | – |
| O=C1CCc2c(OCC(O)CN3CCN(c4ccccc4)CC3)cccc2N1Cc1ccccc1 (stereo not drawn) [Compound 8, 1-Benzyl-5-[2-hydroxy-3-(4-phenylpiperazinyl)propoxy]-3,4-dihydrocarbostyril monohydrochloride] | 0.0158 nM | 7.5 ± 3.3 min | – | – | – | – |
| CC1CN(CCCOc2ccc3c(c2)NC(=O)CC3)CCN1c1ccc(Cl)cc1 (stereo not drawn) [Compound 18, 7-{3-[3-Methyl-4-(4-chlorophenyl)piperazinyl]propoxy}-3,4-dihydrocarbostyril dihydrochloride] | 2.19 nM | 8.4 ± 2.5 min | – | – | – | – |
| CCCCCCN1C(=O)CCc2ccc(OCCCN3CCN(c4ccccc4)CC3)cc21 [Compound 38, 1-Hexyl-7-[3-(4-phenylpiperazinyl)propoxy)]-3,4-dihydrocarbostyril dihydrochloride] | 1.17 nM | – | – | – | – | – |
| O=C1CCc2ccc(OCC(O)CN3CCN(c4ccccc4)CC3)cc2N1 (stereo not drawn) [Compound 2, 7-[2-Hydroxy-3-(4-phenylpiperazinyl)propoxy]-3,4-dihydrocarbostyril monohydrochloride] | 17.8 nM | 11.7 ± 5.6 min | – | – | – | – |
| COc1cc(N2CCN(CCCOc3ccc4c(c3)NC(=O)CC4)CC2)cc(OC)c1OC [Compound 29, 7-{3-[4-(3,4,5-Trimethoxyphenyl)piperazinyl]propoxy}-3,4-dihydrocarbostyril dihydrochloride] | 2.69 nM | 9.3 ± 4.4 min | 5.6 ± 2.8 min | 6.6 ± 3.1 min | 8.3 ± 3.7 min | 13.6 ± 4.9 min |
| CCCC(C)C1(CC)C(=O)NC(=O)NC1=O (stereo not drawn) [Pentobarbital, reference compound] | – | – | 5.3 ± 2.6 min | 4.9 ± 3.5 min | 6.3 ± 2.3 min | 8.1 ± 3.1 min |
| CC(=O)N1CCN(CCCOc2ccc3c(c2)NC(=O)CC3)CC1 [Compound 34, 7-[3-(4-Acetylpiperazinyl)propoxy]-3,4-dihydrocarbostyril] | 57.5 nM | 7.8 ± 3.4 min | – | – | – | – |
| O=c1ccc2cc(OCCCN3CCN(c4ccccc4)CC3)ccc2[nH]1 [Compound 36, 6-[3-(4-Phenylpiperazinyl)propoxy]carbostyril] | 10.2 nM | 15.3 ± 3.1 min | – | – | – | – |
| O=c1cc(OCCCN2CCN(c3ccccc3)CC2)c2ccccc2[nH]1 [Compound 26, 4-[3-(4-Phenylpiperazinyl)propoxy]carbostyril] | 2.19 nM | 8.5 ± 3.7 min | – | – | – | – |
| CC(C)N1C(=O)CCc2ccc(OCCCN3CCN(c4ccccc4)CC3)cc21 [Compound 23, 1-(2-Propyl)-7-[3-(4-phenylpiperazinyl)propoxy]-3,4-dihydrocarbostyril dihydrochloride] | 0.589 nM | 7.6 ± 4.2 min | – | – | – | – |
| COc1cc(C(=O)OC(COc2cccc3c2CCC(=O)N3)CN2CCN(c3ccccc3)CC2)cc(OC)c1OC (stereo not drawn) [Compound 21, 5-[2-(3,4,5-Trimethoxybenzoyloxy)-3-(4-phenylpiperazinyl)propoxy]-3,4-dihydrocarbostyril] | 0.912 nM | 8.1 ± 3.9 min | – | – | – | – |
| C=CCN1C(=O)CCc2c(OCC(O)CN3CCN(c4ccc(C)cc4)CC3)cccc21 (stereo not drawn) [Compound 11, 1-Allyl-5-{2-hydroxy-3-[4-(4-methylphenyl)piperazinyl]propoxy}-3,4-dihydrocarbostyril] | 0.617 nM | 6.8 ± 2.2 min | – | – | – | – |
